Assay results taken from PubChem BioAssay (NCI).
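Five compound concentrations were applied to cells in 96-well plates for 48 hours; endpoints were derived by simple linear interpolation of the resulting dose-response curve. TGI marks complete inhibition of growth.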

Assays:
Assay in all cases: growth of human tumour cells (NCI), 48 h
786-0 renal = tested on: 786-0 renal
A498 renal = tested on: A498 renal
A549 NSCLC = tested on: A549 NSCLC
ACHN renal = tested on: ACHN renal
BT-549 breast = tested on: BT-549 breast
CAKI-1 renal = tested on: CAKI-1 renal
CCRF-CEM leukemia = tested on: CCRF-CEM leukemia
COLO 205 colon = tested on: COLO 205 colon
DU-145 prostate = tested on: DU-145 prostate
EKVX NSCLC = tested on: EKVX NSCLC
HCC-2998 colon = tested on: HCC-2998 colon
HCT-116 colon = tested on: HCT-116 colon
HCT-15 colon = tested on: HCT-15 colon
HL-60(TB) leukemia = tested on: HL-60(TB) leukemia
HOP-62 NSCLC = tested on: HOP-62 NSCLC
HOP-92 NSCLC = tested on: HOP-92 NSCLC
HS 578T breast = tested on: HS 578T breast
HT29 colon = tested on: HT29 colon
IGROV1 ovarian = tested on: IGROV1 ovarian
K-562 leukemia = tested on: K-562 leukemia
KM12 colon = tested on: KM12 colon
LOX IMVI melanoma = tested on: LOX IMVI melanoma
M14 melanoma = tested on: M14 melanoma
MALME-3M melanoma = tested on: MALME-3M melanoma
MCF7 breast = tested on: MCF7 breast
MDA-MB-231 breast = tested on: MDA-MB-231 breast
MDA-MB-435 = tested on: MDA-MB-435
MOLT-4 leukemia = tested on: MOLT-4 leukemia
NCI-H226 lung = tested on: NCI-H226 lung
NCI-H23 lung = tested on: NCI-H23 lung
NCI-H460 lung = tested on: NCI-H460 lung
NCI-H522 lung = tested on: NCI-H522 lung
NCI/ADR-RES ovarian = tested on: NCI/ADR-RES ovarian
OVCAR-3 ovarian = tested on: OVCAR-3 ovarian
OVCAR-4 ovarian = tested on: OVCAR-4 ovarian
OVCAR-5 ovarian = tested on: OVCAR-5 ovarian
OVCAR-8 ovarian = tested on: OVCAR-8 ovarian
PC-3 prostate = tested on: PC-3 prostate
RPMI-8226 leukemia = tested on: RPMI-8226 leukemia
SF-268 CNS = tested on: SF-268 CNS
SF-295 CNS = tested on: SF-295 CNS
SF-539 CNS = tested on: SF-539 CNS
SK-MEL-2 melanoma = tested on: SK-MEL-2 melanoma
SK-MEL-28 melanoma = tested on: SK-MEL-28 melanoma
SK-MEL-5 melanoma = tested on: SK-MEL-5 melanoma
SN12C renal = tested on: SN12C renal
SNB-19 CNS = tested on: SNB-19 CNS
SNB-75 CNS = tested on: SNB-75 CNS
SR leukemia = tested on: SR leukemia
T-47D breast = tested on: T-47D breast
TK-10 renal = tested on: TK-10 renal
U251 CNS = tested on: U251 CNS
UACC-257 melanoma = tested on: UACC-257 melanoma
UACC-62 melanoma = tested on: UACC-62 melanoma
UO-31 renal = tested on: UO-31 renal

COc1cccc(C2SCC(=O)N2c2ccc(-c3ccc(-n4c(-c5ccccc5)nc5ccccc5c4=O)cc3)cc2)c1OC (stereo not given)
TGI (786-0 renal): > 100 µM
TGI (A498 renal): > 100 µM
TGI (A549 NSCLC): > 100 µM
TGI (ACHN renal): > 100 µM
TGI (BT-549 breast): > 100 µM
TGI (CAKI-1 renal): > 100 µM
TGI (CCRF-CEM leukemia): > 100 µM
TGI (COLO 205 colon): > 100 µM
TGI (DU-145 prostate): > 100 µM
TGI (EKVX NSCLC): > 100 µM
TGI (HCC-2998 colon): > 100 µM
TGI (HCT-116 colon): > 100 µM
TGI (HCT-15 colon): > 100 µM
TGI (HL-60(TB) leukemia): > 100 µM
TGI (HOP-62 NSCLC): > 100 µM
TGI (HOP-92 NSCLC): > 100 µM
TGI (HS 578T breast): > 100 µM
TGI (HT29 colon): > 100 µM
TGI (IGROV1 ovarian): > 100 µM
TGI (K-562 leukemia): > 100 µM
TGI (KM12 colon): > 100 µM
TGI (LOX IMVI melanoma): > 100 µM
TGI (M14 melanoma): > 100 µM
TGI (MALME-3M melanoma): > 100 µM
TGI (MCF7 breast): > 100 µM
TGI (MDA-MB-231 breast): > 100 µM
TGI (MDA-MB-435): > 100 µM
TGI (MOLT-4 leukemia): > 100 µM
TGI (NCI-H226 lung): > 100 µM
TGI (NCI-H23 lung): > 100 µM
TGI (NCI-H460 lung): > 100 µM
TGI (NCI-H522 lung): > 100 µM
TGI (NCI/ADR-RES ovarian): > 100 µM
TGI (OVCAR-3 ovarian): > 100 µM
TGI (OVCAR-4 ovarian): > 100 µM
TGI (OVCAR-5 ovarian): > 100 µM
TGI (OVCAR-8 ovarian): > 100 µM
TGI (PC-3 prostate): > 100 µM
TGI (RPMI-8226 leukemia): > 100 µM
TGI (SF-268 CNS): > 100 µM
TGI (SF-295 CNS): > 100 µM
TGI (SF-539 CNS): > 100 µM
TGI (SK-MEL-2 melanoma): > 100 µM
TGI (SK-MEL-28 melanoma): > 100 µM
TGI (SK-MEL-5 melanoma): > 100 µM
TGI (SN12C renal): > 100 µM
TGI (SNB-19 CNS): > 100 µM
TGI (SNB-75 CNS): 89.1 µM
TGI (SR leukemia): > 100 µM
TGI (T-47D breast): > 100 µM
TGI (TK-10 renal): > 100 µM
TGI (U251 CNS): > 100 µM
TGI (UACC-257 melanoma): > 100 µM
TGI (UACC-62 melanoma): > 100 µM
TGI (UO-31 renal): > 100 µM
